# Patent US20200231638A1, “STABILIZED ANTI-MICROBIAL PEPTIDES” (priority 2015, published 2020)
# Bridge positions count the residues as written; N and C are the ends. Square brackets hold non-standard residues; d marks the D form. Peptide text beside a SMILES is read from it. R8 = C=CCCCCCC[C@@](C)(N)C(=O)O; S5 = C=CCCC[C@](C)(N)C(=O)O; Nle = CCCC[C@H](N)C(=O)O
# Experiments:
# B. cereus = type: cell-based, Bacillus cereus
# In short: (§1)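 MIC read as the minimum peptide concentration showing no visible growth after 20-24 hours at 37° C. Cultures were grown overnight, then regrown several hours before testing. Medium was MHB refined by anion exchange to strip polyanions; final inoculum 5×10^5 CFU/ml.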
# S. aureus = type: cell-based, Staphylococcus aureus
# In short: as §1
# human red blood cells = type: cell-based; details: red cells of human, 1 h, 25
# In short: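 Washed human RBCs as 1% (v/v) suspension in phosphate-buffered saline incubated 1 h at 37° C with serially diluted peptides. Hemoglobin release in supernatant measured spectrophotometrically (570 nm), % hemolysis relative to untreated and 1% Triton-X100 controls; MHC defined as concentration giving less than 1% release.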
# P. aeruginosa = type: cell-based, Pseudomonas aeruginosa
# In short: as §1
# E. coli = type: cell-based, Escherichia coli
# In short: as §1
SMILES,MIC B. cereus (B. cereus),MIC S. aureus (S. aureus),MIC P. aeruginosa (P. aeruginosa),MIC E. coli (E. coli),% Hemolysis at 25 μg/ml (human red blood cells)
CCCC[C@H](NC(=O)[C@@H](NC(=O)[C@H](CCC(=O)O)NC(=O)CNC(=O)[C@@H](NC(=O)[C@]1(C)CCCC=CCCCCCC[C@@](C)(NC(=O)[C@H](CO)NC(=O)[C@H](Cc2c[nH]cn2)NC(=O)[C@H](CC(C)C)NC(=O)[C@H](Cc2ccccc2)NC(=O)[C@H](CCCCN)NC(=O)CNC(=O)[C@@H](NC(=O)CN)[C@@H](C)CC)C(=O)N[C@@H](CCCCN)C(=O)N[C@@H](CCCCN)C(=O)N[C@@H](Cc2ccccc2)C(=O)NCC(=O)N[C@@H](CCCCN)C(=O)N[C@@H](C)C(=O)N1)C(C)C)[C@@H](C)CC)C(=O)N[C@@H](CC(N)=O)C(=O)N[C@@H](CO)C(N)=O [Mag(i + 7)8] (H-GIGKFLHS[R8]KKFGKA[S5]VGEI[Nle]NS-NH2; staple 9-16 (inferred); N-terminus and C-terminus assumed),3.1 µg/mL,6.2 µg/mL,3.1 µg/mL,1.6 µg/mL,85.4%
"CCCC[C@H](NC(=O)[C@]1(C)CCCC=CCCC[C@](C)(NC(=O)[C@H](C)NC(=O)[C@H](CCCCN)NC(=O)CNC(=O)[C@H](CCCCN)NC(=O)[C@H](CCCCN)NC(=O)[C@H](CCCCN)NC(=O)[C@H](C)NC(=O)[C@H](CO)NC(=O)[C@H](Cc2c[nH]cn2)NC(=O)[C@H](CC(C)C)NC(=O)[C@H](Cc2ccccc2)NC(=O)[C@H](CCCCN)NC(=O)CNC(=O)[C@@H](NC(=O)CN)[C@@H](C)CC)C(=O)N[C@@H](C(C)C)C(=O)NCC(=O)N[C@@H](CCC(=O)O)C(=O)N1)C(=O)N[C@@H](CC(N)=O)C(=O)N[C@@H](CO)C(N)=O [Mag(i + 4)15(F12K), GIGKFLHSAKKKGKAXVGEXBNS] (H-GIGKFLHSAKKKGKA[S5]VGE[S5][Nle]NS-NH2; staple 16-20)",>50 µg/mL,>50 µg/mL,12.5 µg/mL,3.1 µg/mL,2.0%
"CCCC[C@H](NC(=O)[C@]1(C)CCCC=CCCC[C@](C)(NC(=O)[C@H](C)NC(=O)[C@H](CCCCN)NC(=O)CNC(=O)[C@H](Cc2ccccc2)NC(=O)[C@H](CCCCN)NC(=O)[C@H](CCCCN)NC(=O)[C@H](C)NC(=O)[C@H](CO)NC(=O)[C@H](CCCCN)NC(=O)[C@H](CC(C)C)NC(=O)[C@H](Cc2ccccc2)NC(=O)[C@H](CCCCN)NC(=O)CNC(=O)[C@@H](NC(=O)CN)[C@@H](C)CC)C(=O)N[C@@H](C(C)C)C(=O)NCC(=O)N[C@@H](CCC(=O)O)C(=O)N1)C(=O)N[C@@H](CC(N)=O)C(=O)N[C@@H](CO)C(N)=O [Mag(i + 4)15(H7K), GIGKFLKSAKKFGKAXVGEXBNS] (H-GIGKFLKSAKKFGKA[S5]VGE[S5][Nle]NS-NH2; staple 16-20; N-terminus and C-terminus assumed)",3.1 µg/mL,6.2 µg/mL,3.1 µg/mL,1.6 µg/mL,3.1%
"CCCC[C@H](NC(=O)[C@]1(C)CCCC=CCCC[C@](C)(NC(=O)[C@H](C)NC(=O)[C@H](CCCCN)NC(=O)CNC(=O)[C@H](Cc2ccccc2)NC(=O)[C@H](CCCCN)NC(=O)[C@H](CCCCN)NC(=O)[C@H](C)NC(=O)[C@H](CO)NC(=O)[C@H](CCC(=O)O)NC(=O)[C@H](CC(C)C)NC(=O)[C@H](Cc2ccccc2)NC(=O)[C@H](CCCCN)NC(=O)CNC(=O)[C@@H](NC(=O)CN)[C@@H](C)CC)C(=O)N[C@@H](C(C)C)C(=O)NCC(=O)N[C@@H](CCC(=O)O)C(=O)N1)C(=O)N[C@@H](CC(N)=O)C(=O)N[C@@H](CO)C(N)=O [Mag(i + 4)15(H7E), GIGKFLESAKKFGKAXVGEXBNS] (H-GIGKFLESAKKFGKA[S5]VGE[S5][Nle]NS-NH2; staple 16-20)",6.2 µg/mL,25 µg/mL,12.5 µg/mL,3.1 µg/mL,2.9%
CCCC[C@H](NC(=O)[C@@H](NC(=O)[C@H](CCC(=O)O)NC(=O)CNC(=O)[C@@H](NC(=O)[C@H](Cc1ccccc1)NC(=O)[C@H](C)NC(=O)[C@H](CCCCN)NC(=O)CNC(=O)[C@]1(C)CCCC=CCCC[C@](C)(NC(=O)[C@H](Cc2c[nH]cn2)NC(=O)[C@H](CC(C)C)NC(=O)[C@H](Cc2ccccc2)NC(=O)[C@H](CCCCN)NC(=O)CNC(=O)[C@@H](NC(=O)CN)[C@@H](C)CC)C(=O)N[C@@H](C)C(=O)N[C@@H](CCCCN)C(=O)N[C@@H](CCCCN)C(=O)N1)C(C)C)[C@@H](C)CC)C(=O)N[C@@H](CC(N)=O)C(=O)N[C@@H](CO)C(N)=O [Mag(i + 4)7] (H-GIGKFLH[S5]AKK[S5]GKAFVGEI[Nle]NS-NH2; staple 8-12),6.2 µg/mL,6.2 µg/mL,6.2 µg/mL,3.1 µg/mL,62.5%
CCCC[C@@H]1NC(=O)[C@H]([C@@H](C)CC)NC(=O)[C@H](CCC(=O)O)NC(=O)CNC(=O)[C@H](C(C)C)NC(=O)[C@H](Cc2ccccc2)NC(=O)[C@](C)(NC(=O)[C@H](CCCCN)NC(=O)CNC(=O)[C@H](Cc2ccccc2)NC(=O)[C@H](CCCCN)NC(=O)[C@H](CCCCN)NC(=O)[C@H](C)NC(=O)[C@H](CO)NC(=O)[C@H](Cc2c[nH]cn2)NC(=O)[C@H](CC(C)C)NC(=O)[C@H](Cc2ccccc2)NC(=O)[C@H](CCCCN)NC(=O)CNC(=O)[C@@H](NC(=O)CN)[C@@H](C)CC)CCCCCCC=CCCC[C@@](C)(C(=O)N[C@@H](CO)C(N)=O)NC1=O [Mag(i + 7)14] (H-GIGKFLHSAKKFGK[R8]FVGEI[Nle][S5]S-NH2; staple 15-22 (inferred); N-terminus and C-terminus assumed),1.6 µg/mL,1.6 µg/mL,6.2 µg/mL,1.6 µg/mL,68.1%

# Further lines, with some results ahead:
MIC B. cereus (B. cereus),MIC S. aureus (S. aureus),MIC P. aeruginosa (P. aeruginosa),MIC E. coli (E. coli),SMILES,% Hemolysis at 25 μg/ml (human red blood cells)
>50 µg/mL,>50 µg/mL,12.5 µg/mL,3.1 µg/mL,"CCCC[C@H](NC(=O)[C@]1(C)CCCC=CCCC[C@](C)(NC(=O)[C@H](C)NC(=O)[C@H](CCCCN)NC(=O)CNC(=O)[C@H](Cc2ccccc2)NC(=O)[C@H](CCCCN)NC(=O)[C@H](CCCCN)NC(=O)[C@H](CCCCN)NC(=O)[C@H](CO)NC(=O)[C@H](Cc2c[nH]cn2)NC(=O)[C@H](CC(C)C)NC(=O)[C@H](Cc2ccccc2)NC(=O)[C@H](CCCCN)NC(=O)CNC(=O)[C@@H](NC(=O)CN)[C@@H](C)CC)C(=O)N[C@@H](C(C)C)C(=O)NCC(=O)N[C@@H](CCC(=O)O)C(=O)N1)C(=O)N[C@@H](CC(N)=O)C(=O)N[C@@H](CO)C(N)=O [Mag(i + 4)15(A9K), GIGKFLHSKKKFGKAXVGEXBNS] (H-GIGKFLHSKKKFGKA[S5]VGE[S5][Nle]NS-NH2; staple 16-20)",1.9%
12.5 µg/mL,25 µg/mL,12.5 µg/mL,3.1 µg/mL,"CCCC[C@H](NC(=O)[C@]1(C)CCCC=CCCC[C@](C)(NC(=O)[C@H](C)NC(=O)[C@H](CCCCN)NC(=O)CNC(=O)[C@H](Cc2ccccc2)NC(=O)[C@H](CCCCN)NC(=O)[C@H](CCCCN)NC(=O)[C@H](C)NC(=O)[C@H](CO)NC(=O)[C@H](Cc2c[nH]cn2)NC(=O)[C@H](CC(C)C)NC(=O)[C@H](Cc2ccccc2)NC(=O)[C@H](CCCCN)NC(=O)CNC(=O)[C@@H](NC(=O)CN)[C@@H](C)CC)C(=O)N[C@@H](C(C)C)C(=O)NCC(=O)N[C@@H](CCC(=O)O)C(=O)N1)C(=O)N[C@@H](CCC(=O)O)C(=O)N[C@@H](CO)C(N)=O [Mag(i + 4)15(N22E), GIGKFLHSAKKFGKAXVGEXBES] (H-GIGKFLHSAKKFGKA[S5]VGE[S5][Nle]ES-NH2; staple 16-20)",3.4%
12.5 µg/mL,25 µg/mL,12.5 µg/mL,3.1 µg/mL,"CCCC[C@H](NC(=O)[C@]1(C)CCCC=CCCC[C@](C)(NC(=O)[C@H](C)NC(=O)[C@H](CCCCN)NC(=O)CNC(=O)[C@H](Cc2ccccc2)NC(=O)[C@H](CCCCN)NC(=O)[C@H](CCCCN)NC(=O)[C@H](C)NC(=O)[C@H](CO)NC(=O)[C@H](Cc2c[nH]cn2)NC(=O)[C@H](CC(C)C)NC(=O)[C@H](Cc2ccccc2)NC(=O)[C@H](CCCCN)NC(=O)CNC(=O)[C@@H](NC(=O)CN)[C@@H](C)CC)C(=O)N[C@@H](C(C)C)C(=O)NCC(=O)N[C@@H](CCC(=O)O)C(=O)N1)C(=O)N[C@@H](CC(N)=O)C(=O)N[C@@H](CCC(=O)O)C(N)=O [Mag(i + 4)15(S23E), GIGKFLHSAKKFGKAXVGEXBNE] (H-GIGKFLHSAKKFGKA[S5]VGE[S5][Nle]NE-NH2; staple 16-20)",4.9%
6.2 µg/mL,25 µg/mL,12.5 µg/mL,1.6 µg/mL,"CCCC[C@H](NC(=O)[C@]1(C)CCCC=CCCC[C@](C)(NC(=O)[C@H](C)NC(=O)[C@H](CCCCN)NC(=O)CNC(=O)[C@H](Cc2ccccc2)NC(=O)[C@H](CCCCN)NC(=O)[C@H](CCCCN)NC(=O)[C@H](C)NC(=O)[C@H](CO)NC(=O)[C@H](Cc2c[nH]cn2)NC(=O)[C@H](CC(C)C)NC(=O)[C@H](Cc2ccccc2)NC(=O)[C@H](CCCCN)NC(=O)[C@H](Cc2c[nH]cn2)NC(=O)[C@@H](NC(=O)CN)[C@@H](C)CC)C(=O)N[C@@H](C(C)C)C(=O)NCC(=O)N[C@@H](CCC(=O)O)C(=O)N1)C(=O)N[C@@H](CC(N)=O)C(=O)N[C@@H](CO)C(N)=O [Mag(i + 4)15(G3H), GIHKFLHSAKKFGKAXVGEXBNS] (H-GIHKFLHSAKKFGKA[S5]VGE[S5][Nle]NS-NH2; staple 16-20)",5.1%
